In patent US20110130380A1, “Heteroaryl Kinase Inhibitors” (priority 2009, published 2011):

Molecular target: Cdk9/cyclinT1 (Homo sapiens, UniProt P50750)
Experiment: Cdk9/cyclinT1 IMAP Protocol (fluorescence polarization kinase assay)
Conditions: Cdk9_cyclinT1_IC50, Table V; generated using one of the two Cdk9/cyclinT1 assays (IMAP or Alpha Screen), not stated which; ATP 6 uM

Cdk9/cyclinT1, sequence (P50750 whole entry): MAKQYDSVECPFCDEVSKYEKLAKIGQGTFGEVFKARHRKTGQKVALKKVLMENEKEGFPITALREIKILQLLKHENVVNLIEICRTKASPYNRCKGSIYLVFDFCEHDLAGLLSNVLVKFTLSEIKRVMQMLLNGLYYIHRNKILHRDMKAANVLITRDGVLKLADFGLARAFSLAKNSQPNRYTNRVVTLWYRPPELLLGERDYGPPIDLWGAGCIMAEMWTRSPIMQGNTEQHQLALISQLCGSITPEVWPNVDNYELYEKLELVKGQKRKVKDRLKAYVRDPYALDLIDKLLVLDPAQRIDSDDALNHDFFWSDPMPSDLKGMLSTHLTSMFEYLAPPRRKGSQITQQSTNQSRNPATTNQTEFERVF
Cdk9/cyclinT1, sequence (O60563 whole entry partner): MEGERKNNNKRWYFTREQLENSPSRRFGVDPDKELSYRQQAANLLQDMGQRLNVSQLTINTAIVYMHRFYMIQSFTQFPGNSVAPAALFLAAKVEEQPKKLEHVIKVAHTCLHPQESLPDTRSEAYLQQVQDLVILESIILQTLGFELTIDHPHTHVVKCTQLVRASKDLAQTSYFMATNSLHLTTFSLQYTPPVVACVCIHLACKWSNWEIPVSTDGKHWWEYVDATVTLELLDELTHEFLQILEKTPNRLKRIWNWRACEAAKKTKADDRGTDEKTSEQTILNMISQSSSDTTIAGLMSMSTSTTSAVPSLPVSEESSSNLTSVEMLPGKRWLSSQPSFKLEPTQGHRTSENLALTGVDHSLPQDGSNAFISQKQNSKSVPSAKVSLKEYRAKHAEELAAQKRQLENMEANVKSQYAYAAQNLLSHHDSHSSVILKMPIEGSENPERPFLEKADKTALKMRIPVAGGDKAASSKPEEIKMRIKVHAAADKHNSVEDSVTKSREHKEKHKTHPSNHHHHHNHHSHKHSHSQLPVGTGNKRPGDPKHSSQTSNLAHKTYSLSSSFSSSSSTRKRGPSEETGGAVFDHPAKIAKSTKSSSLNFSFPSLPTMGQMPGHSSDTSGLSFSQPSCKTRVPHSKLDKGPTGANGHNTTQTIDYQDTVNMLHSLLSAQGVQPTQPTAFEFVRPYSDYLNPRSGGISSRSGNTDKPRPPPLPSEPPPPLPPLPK

Row | SMILES | IC50 [nM]
1 | O=C(Nc1cc(-c2cccc(NCc3cccnc3)n2)c(Cl)cn1)[C@@H]1CCCNC1 [Example 40, (R)-Piperidine-3-carboxylic acid {5′-chloro-6-[(pyridin-3-ylmethyl)-amino]-[2,4′]bipyridinyl-2′-yl}-amide] | < 8
2 | O=C(Nc1cc(-c2cccc(NCc3cncc(F)c3)n2)c(Cl)cn1)[C@@H]1CCCNC1 [Example 41, (R)-Piperidine-3-carboxylic acid {5′-chloro-6-[(5-fluoro-pyridin-3-ylmethyl)-amino]-[2,4′]bipyridinyl-2′-yl}-amide] | < 8
3 | O=C(Nc1cc(-c2cccc(N3CCC(c4ccccc4)CC3)n2)c(Cl)cn1)[C@@H]1CCCNC1 [Example 42, (R)-Piperidine-3-carboxylic acid (5″- chloro-4-phenyl-3,4,5,6-tetrahydro-2H-[1,2′;6′,4″]terpyridin-2″- yl)-amide] | 42
4 | O=C(Nc1cc(-c2cccc(N3CCC(O)CC3)n2)c(Cl)cn1)[C@@H]1CCCNC1 [Example 43, (R)-Piperidine-3-carboxylic acid (5″- chloro-4-hydroxy-3,4,5,6-tetrahydro-2H-[1,2′;6′,4″]terpyridin-2″- yl)-amide] | 57
5 | O=C(Nc1cc(-c2cccc(N3CCCC3)n2)c(Cl)cn1)[C@@H]1CCCNC1 [Example 44, (R)-Piperidine-3-carboxylic acid (5′-chloro-6-pyrrolidin-1-yl-[2,4′]bipyridinyl-2′-yl)-amide] | 181
6 | O=C(Nc1cc(-c2cccc(N3CCOCC3)n2)c(Cl)cn1)[C@@H]1CCCNC1 [Example 45, (R)-Piperidine-3-carboxylic acid (5′-chloro-6-morpholin-4-yl-[2,4′]bipyridinyl-2′-yl)-amide] | 154
7 | O=C(Nc1cc(-c2cccc(NCC3CCCOC3)n2)c(Cl)cn1)[C@H]1CCCNC1 (stereo partly drawn) [Example 46, (S)-Piperidine-3-carboxylic acid {5′-chloro-6-[(tetrahydro-pyran-3-ylmethyl)-amino]-[2,4′]bipyridinyl-2′-yl}-amide] | 56
8 | N[C@@H]1CC[C@H](C(=O)Nc2cc(-c3cccc(NCC4CCOCC4)n3)c(Cl)cn2)C1 [Example 47, (1S,3R)-3-Amino-cyclopentanecarboxylic acid {5′-chloro-6-[(tetrahydro-pyran-4-ylmethyl)-amino]-[2,4′]bipyridinyl-2′-yl}-amide] | < 8
9 | N[C@H]1CC[C@@H](C(=O)Nc2cc(-c3cccc(NCC4CCOCC4)n3)c(Cl)cn2)C1 [Example 48, (1R,3S)-3-Amino-cyclopentanecarboxylic acid {5′-chloro-6-[(tetrahydro-pyran-4-ylmethyl)-amino]-[2,4′]bipyridinyl-2′-yl}-amide] | < 8
10 | N[C@@H]1CC[C@@H](C(=O)Nc2cc(-c3cccc(NCC4CCOCC4)n3)c(Cl)cn2)C1 [Example 49, (1R,3R)-3-Amino-cyclopentanecarboxylic acid {5′-chloro-6-[(tetrahydro-pyran-4-ylmethyl)-amino]-[2,4′]bipyridinyl-2′-yl}-amide] | < 8
11 | O=C(Nc1cc(-c2cccc(NCC3CCOCC3)n2)c(Cl)cn1)[C@@H]1CCNC1 [Example 50, (R)-Pyrrolidine-3-carboxylic acid {5′-chloro-6-[(tetrahydro-pyran-4-ylmethyl)-amino]-[2,4′]bipyridinyl-2′-yl}-amide] | < 8
12 | O=C(Nc1cc(-c2cccc(NCc3ccccc3F)n2)c(Cl)cn1)[C@@H]1CCCNC1 [Example 51, (R)-Piperidine-3-carboxylic acid [5′-chloro-6-(2-fluoro-benzylamino)-[2,4′]bipyridinyl-2′-yl]-amide] | 10
13 | O=C(Nc1cc(-c2cccc(NCc3ccccn3)n2)c(Cl)cn1)[C@@H]1CCCNC1 [Example 52, (R)-Piperidine-3-carboxylic acid {5′-chloro-6-[(pyridin-2-ylmethyl)-amino]-[2,4′]bipyridinyl-2′-yl}-amide] | 38
14 | O=C(Nc1cc(-c2cccc(NCc3ccc(F)cc3)n2)c(Cl)cn1)[C@@H]1CCCNC1 [Example 53, (R)-Piperidine-3-carboxylic acid [5′-chloro-6-(4-fluoro-benzylamino)-[2,4′]bipyridinyl-2′-yl]-amide] | < 8
15 | O=C(Nc1cc(-c2cccc(NCc3ccncc3)n2)c(Cl)cn1)[C@@H]1CCCNC1 [Example 54, (R)-Piperidine-3-carboxylic acid {5′-chloro-6-[(pyridin-4-ylmethyl)-amino]-[2,4′]bipyridinyl-2′-yl}-amide] | < 8
16 | O=C(Nc1cc(-c2cccc(NCc3cccc(OC(F)F)c3)n2)c(Cl)cn1)[C@@H]1CCCNC1 [Example 55, (R)-Piperidine-3-carboxylic acid [5′-chloro-6-(3-difluoromethoxy-benzylamino)-[2,4′]bipyridinyl-2′-yl]-amide] | < 8
17 | O=C(Nc1cc(-c2cccc(NCC3CCOCC3)n2)c(Cl)cn1)[C@H]1CCCN1 [Example 57, (R)-Pyrrolidine-2-carboxylic acid {5′-chloro-6-[(tetrahydro-pyran-4-ylmethyl)-amino]-[2,4′]bipyridinyl-2′-yl}-amide] | 81
18 | O=C(Nc1cc(-c2cccc(NCC3CCOCC3)n2)c(Cl)cn1)[C@@H]1CCCN1 [Example 58, (S)-Pyrrolidine-2-carboxylic acid {5′-chloro-6-[(tetrahydro-pyran-4-ylmethyl)-amino]-[2,4′]bipyridinyl-2′-yl}-amide] | 116

Row | SMILES | IC50 [nM]
19 | CN1CC(C(=O)Nc2cc(-c3cccc(NCC4CCOCC4)n3)c(Cl)cn2)CC1=O (centres unmarked) [Example 60, 1-Methyl-5-oxo-pyrrolidine-3-carboxylic acid {5′-chloro-6-[(tetrahydro-pyran-4-ylmethyl)-amino]-[2,4′]bipyridinyl-2′-yl}-amide] | 9
20 | O=C1CCC(C(=O)Nc2cc(-c3cccc(NCC4CCOCC4)n3)c(Cl)cn2)CN1 (centres unmarked) [Example 61, 6-Oxo-piperidine-3-carboxylic acid {5′-chloro-6-[(tetrahydro-pyran-4-ylmethyl)-amino]-[2,4′]bipyridinyl-2′-yl}-amide] | < 8
21 | O=C(Nc1cc(-c2cccc(NCC3CCOCC3)n2)c(Cl)cn1)C1CCCOC1 (centres unmarked) [Example 62, Tetrahydro-pyran-3-carboxylic acid {5′-chloro-6-[(tetrahydro-pyran-4-ylmethyl)-amino]-[2,4′]bipyridinyl-2′-yl}-amide] | 19
22 | O=C(Nc1cc(-c2cccc(NCC3CCOCC3)n2)c(Cl)cn1)C1CCOCC1 [Example 63, Tetrahydro-pyran-4-carboxylic acid {5′-chloro-6-[(tetrahydro-pyran-4-ylmethyl)-amino]-[2,4′]bipyridinyl-2′-yl}-amide] | 27
23 | CNCCC(=O)Nc1cc(-c2cccc(NCC3CCOCC3)n2)c(Cl)cn1 [Example 64, N-{5′-Chloro-6-[(tetrahydro-pyran-4-ylmethyl)-amino]-[2,4′]bipyridinyl-2′-yl}-3-methylamino-propionamide] | 37
24 | O=C(Nc1cc(-c2cccc(NCC3CCOCC3)n2)c(Cl)cn1)C1CCCC1 [Example 65, Cyclopentanecarboxylic acid {5′-chloro-6-[(tetrahydro-pyran-4-ylmethyl)-amino]-[2,4′]bipyridinyl-2′-yl}-amide] | < 8
25 | O=C(Cc1cccnc1)Nc1cc(-c2cccc(NCC3CCOCC3)n2)c(Cl)cn1 [Example 66, N-{5′-Chloro-6-[(tetrahydro-pyran-4-ylmethyl)-amino]-[2,4′]bipyridinyl-2′-yl}-2-pyridin-3-yl-acetamide] | 9
26 | O=C(Nc1cc(-c2cccc(NCC3CCOCC3)n2)c(Cl)cn1)[C@@H]1CCCO1 [Example 67, (S)-Tetrahydro-furan-2-carboxylic acid {5′-chloro-6-[(tetrahydro-pyran-4-ylmethyl)-amino]-[2,4′]bipyridinyl-2′-yl}-amide] | 396
27 | O=C(Nc1cc(-c2cccc(NCC3CCOCC3)n2)c(Cl)cn1)[C@H]1CCCO1 [Example 68, (R)-Tetrahydro-furan-2-carboxylic acid {5′-chloro-6-[(tetrahydro-pyran-4-ylmethyl)-amino]-[2,4′]bipyridinyl-2′-yl}-amide] | 11
28 | CC(=O)Nc1cc(-c2cccc(NCC3CCOCC3)n2)c(Cl)cn1 [Example 69, N-{5′-Chloro-6-[(tetrahydro-pyran-4-ylmethyl)-amino]-[2,4′]bipyridinyl-2′-yl}-acetamide] | 139
29 | CC(C)C(=O)Nc1cc(-c2cccc(NCC3CCOCC3)n2)c(Cl)cn1 [Example 70, N-{5′-Chloro-6-[(tetrahydro-pyran-4-ylmethyl)-amino]-[2,4]bipyridinyl-2′-yl}-isobutyramide] | 11
30 | O=C(Nc1cc(-c2cccc(NCC3CCOCC3)n2)c(Cl)cn1)c1cccnc1 [Example 71, N-{5′-Chloro-6-[(tetrahydro-pyran-4-ylmethyl)-amino]-[2,4′]bipyridinyl-2′-yl}-nicotinamide] | 56
31 | CC(C)(C)C(=O)Nc1cc(-c2cccc(NCC3CCOCC3)n2)c(Cl)cn1 [Example 72, N-{5′-Chloro-6-[(tetrahydro-pyran-4-ylmethyl)-amino]-[2,4′]bipyridinyl-2′-yl}-2,2-dimethyl-propionamide] | 40
32 | O=C(Nc1cc(-c2cccc(NCC3CCOCC3)n2)c(Cl)cn1)[C@H]1CCNC1 [Example 73, (S)-Pyrrolidine-3-carboxylic acid {5′-chloro-6-[(tetrahydro-pyran-4-ylmethyl)-amino]-[2,4′]bipyridinyl-2′-yl}-amide] | 13
33 | O=C(Nc1cc(-c2ccc(Cl)c(NCC3CCOCC3)n2)c(Cl)cn1)[C@@H]1CCCNC1 [Example 74, (R)-Piperidine-3-carboxylic acid {5,5′-dichloro-6-[(tetrahydro-pyran-4-ylmethyl)-amino]-[2,4′]bipyridinyl-2′-yl}-amide] | < 8
34 | O=C(Nc1cc(-c2nc(NCC3CCOCC3)ccc2Cl)c(Cl)cn1)[C@@H]1CCCNC1 [Example 75] | < 8
35 | C[C@@H](Nc1cccc(-c2cc(NC(=O)[C@@H]3CCCNC3)ncc2Cl)n1)C1CCCCC1 [Example 76, (R)-Piperidine-3-carboxylic acid [5′-chloro-6-((R)-1-cyclohexyl-ethylamino)-[2,4′]bipyridinyl-2′-yl]-amide] | 15
